Measured values from patent publication US12391679B2, “Benzamide-substituted bicyclic imidazo- and pyrazolo-fused -pyridine, -pyrimide, and -pyridazine compounds for treatment of inflammatory diseases” (ONCO3R Therapeutics BV, priority 2019, dated 2025).

Legend:
[1] = target: T1, SIK2 (Homo sapiens, UniProt Q9H0K1); test: ADP-Glo kinase assay, SIK2; type: biochemical
T1 construct: purchased ThermoFisher Scientific PV4792
Outline: (§1)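 Luminescent ADP-Glo readout of ADP formed. Enzyme-substrate mix with ATP, reaction 120 min at RT, then 40 min ATP depletion and 30 min detection. Controls were 1% DMSO (negative) and 10 μM staurosporine (positive), both final.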

[2] = target: T2, SIK3 (Homo sapiens, UniProt Q9Y2K2); test: ADP-Glo kinase assay, SIK3; type: biochemical
T2 construct: purchased SignalChem S12-11G-100
T2 sequence (Q9Y2K2 59-365 limits assumed): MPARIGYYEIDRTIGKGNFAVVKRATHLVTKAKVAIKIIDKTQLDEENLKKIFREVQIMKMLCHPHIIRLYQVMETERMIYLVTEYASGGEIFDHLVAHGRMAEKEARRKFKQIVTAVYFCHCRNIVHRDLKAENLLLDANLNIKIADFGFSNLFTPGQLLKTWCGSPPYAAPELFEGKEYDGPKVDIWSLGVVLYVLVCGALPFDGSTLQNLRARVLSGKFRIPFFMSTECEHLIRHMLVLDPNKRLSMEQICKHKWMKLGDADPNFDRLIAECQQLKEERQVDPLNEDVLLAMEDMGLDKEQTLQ
Outline: as §1

[3] = system: LPS-induced TNFα in monocytes; test: Monocytes assay: LPS-triggered TNFα (ELISA); type: cell-based, human; settings: Homo sapiens, Monocyte, LPS-triggered TNFα inhibition
Method: This assay evaluates illustrative compounds of the invention for their inhibition of LPS-induced TNFα and LPS triggered IL-10 secretion in monocytes.
PBMCs are isolated from human blood samples (buffycoats). The buffy coat is aseptically transferred into a 50 mL Falcon tube, and diluted 1/2 in PBS. Falcon tubes are filled with 20 mL Lymphoprep™, on top of which 25 mL of the buffy coat is carefully added, tubes are centrifuged for 35 min at 400 g in temperature controlled centrifuge, without brake, at 25° C. PBMCs are aspirated from the white interface layer between sample and Lymphoprep™. PBMCs are washed five times in PBS.
PBMCs are centrifuged at 300×g for 10 min and resuspended at a density of 1.0*10^7 cells/80 μL Miltenyi buffer (PBS, pH 7.4, 1% FBS, 2 mM EDTA).
Starting from this point of the protocol all steps are performed on ice. 20 μL of CD14+ micro-beads are added per 1.0*10^7 cells, the tube is mixed and incubated for 15 min in the fridge at 4° C. Cell suspension volume is adjusted to total volume of 100 mL using Miltenyi buffer, mixed gently and subsequently centrifuged for 10 min at 300×g. Supernatant is discarded and cell pellet is resuspended in 12 mL of Miltenyi buffer.
Four LS columns are placed in the MACS Separator (magnet) from Miltenyi Biotec, and are prewet by rinsing with 3 mL of MACS buffer per column. Three mL of cell suspension is added onto the column (max 1*10^8 of labelled cells/column), and columns are subsequently washed 3 times with 3 mL of Miltenyi buffer.
The columns are removed from the magnets, and 5 mL of Miltenyi buffer are added to the column to flush out the CD14+ fraction by pushing the plunger into the column. The flushed fractions are collected in a fresh 50 mL Falcon and volume is adjusted to 30 mL using Miltenyi buffer, cells are centrifuged for 10 min at 300×g. The obtained cell pellet is resuspended in 10 mL RPMI w/o FBS, and cell density is determined using a hematologic analyser (Sysmex XS-500i).
A compound dilution plate is made in 100% DMSO by 3-fold dilution of 10 mM stock solution. An intermediate dilution plate (10× final concentration) is made by diluting the compound dilution plate 50-fold in RPMI medium.
10 μL of the 10× final concentration compound is added to the cells and incubated for 1 h at 37° C. before addition of trigger. No trigger conditions/trigger conditions are spiked with equal final DMSO concentrations of 0.2% DMSO. 10 μL of 10×LPS (final conc. 200 ng/mL) solution are added to all wells except for the ‘no trigger wells’ where 10 μL medium is added. Supernatant is collected after 4 h of LPS triggering.
The plate is then washed once with PBST (PBS+0.05% Tween20) and once with PBS followed by the addition of 100 μL of blocking buffer (1% Bovine Serum Albumin (BSA)-5% Sucrose) and plates are sealed and incubated for at least 4 h at RT. After washing the plate once with PBST and once with PBS, […]. Plates are washed twice with PBST, and once with PBS, after which 35 μL of the detection antibody is added (final concentration 0.25 μg/mL diluted in dilution buffer) and plates are incubated for at least 2 h at RT. Plates are washed twice with PBST, and once with PBS, whereafter 35 μL of Strep-HRP conjugate (0.5 μg/mL final concentration diluted in dilution buffer) is added. Plates are incubated in the dark, at RT for at least 45 min but no longer than 1 h. Plates are washed twice with PBST, and once with PBS. Thereafter, 50 μL of luminol substrate is added to each well (prepared according to manufacturer's instructions), and incubated for 5 min at RT protected from light.
To measure the inhibition of LPS induced TNFα, percentage inhibition (PIN) values are calculated for all concentrations tested, compared to controls.

[4] = target: T3, SIK1 (Homo sapiens, UniProt P57059); test: ADP-Glo kinase assay, SIK1; type: biochemical
T3 construct: purchased Carna Biosciences 02-131
T3 sequence (P57059 whole entry): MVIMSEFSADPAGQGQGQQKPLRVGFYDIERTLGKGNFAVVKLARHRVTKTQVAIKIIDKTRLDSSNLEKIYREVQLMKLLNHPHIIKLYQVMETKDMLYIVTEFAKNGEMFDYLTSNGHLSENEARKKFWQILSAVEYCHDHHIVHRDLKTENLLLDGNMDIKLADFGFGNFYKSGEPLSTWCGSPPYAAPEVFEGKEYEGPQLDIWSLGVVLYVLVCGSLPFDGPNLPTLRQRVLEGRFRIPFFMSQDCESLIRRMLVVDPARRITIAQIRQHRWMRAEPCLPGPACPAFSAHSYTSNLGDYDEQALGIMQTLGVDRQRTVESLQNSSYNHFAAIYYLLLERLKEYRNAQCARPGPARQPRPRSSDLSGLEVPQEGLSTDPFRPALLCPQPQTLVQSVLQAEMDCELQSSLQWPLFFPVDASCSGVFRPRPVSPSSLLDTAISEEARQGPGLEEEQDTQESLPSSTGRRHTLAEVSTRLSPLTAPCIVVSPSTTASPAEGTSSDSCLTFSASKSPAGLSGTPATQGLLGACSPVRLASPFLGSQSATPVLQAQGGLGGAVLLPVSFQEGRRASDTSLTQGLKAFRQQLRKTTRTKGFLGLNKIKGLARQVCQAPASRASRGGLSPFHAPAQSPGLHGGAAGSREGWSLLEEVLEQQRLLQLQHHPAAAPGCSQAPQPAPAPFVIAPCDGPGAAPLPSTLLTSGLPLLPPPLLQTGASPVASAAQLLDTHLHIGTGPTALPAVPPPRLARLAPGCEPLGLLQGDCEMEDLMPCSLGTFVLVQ
Outline: as §1

T1 sequence (Q9H0K1 whole entry): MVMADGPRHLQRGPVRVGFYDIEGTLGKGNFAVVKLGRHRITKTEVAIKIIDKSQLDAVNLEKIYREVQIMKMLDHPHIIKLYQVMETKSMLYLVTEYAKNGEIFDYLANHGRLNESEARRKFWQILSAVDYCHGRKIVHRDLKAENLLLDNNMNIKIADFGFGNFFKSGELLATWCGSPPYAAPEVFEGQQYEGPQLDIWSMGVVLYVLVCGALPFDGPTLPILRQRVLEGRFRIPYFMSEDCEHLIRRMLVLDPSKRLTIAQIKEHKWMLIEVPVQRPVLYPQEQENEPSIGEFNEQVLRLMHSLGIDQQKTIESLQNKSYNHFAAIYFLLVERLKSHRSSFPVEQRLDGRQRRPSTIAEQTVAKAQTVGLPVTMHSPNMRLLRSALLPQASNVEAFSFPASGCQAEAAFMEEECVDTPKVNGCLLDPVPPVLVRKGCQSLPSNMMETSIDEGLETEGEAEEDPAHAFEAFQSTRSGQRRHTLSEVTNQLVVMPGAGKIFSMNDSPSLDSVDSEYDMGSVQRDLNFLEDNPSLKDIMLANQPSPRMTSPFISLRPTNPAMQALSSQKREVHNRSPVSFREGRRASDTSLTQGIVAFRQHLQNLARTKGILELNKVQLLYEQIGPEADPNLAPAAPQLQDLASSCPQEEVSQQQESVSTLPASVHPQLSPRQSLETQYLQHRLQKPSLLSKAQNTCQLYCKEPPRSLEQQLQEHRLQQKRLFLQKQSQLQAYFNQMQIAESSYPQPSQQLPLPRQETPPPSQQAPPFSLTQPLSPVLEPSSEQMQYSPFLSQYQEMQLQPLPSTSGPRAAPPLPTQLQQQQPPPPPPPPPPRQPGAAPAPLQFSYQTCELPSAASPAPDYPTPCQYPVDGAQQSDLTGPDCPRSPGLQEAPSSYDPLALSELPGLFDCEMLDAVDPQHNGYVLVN

Row | Structure (SMILES) | IC50 [1] [nM] | IC50 [2] [nM] | EC50 [3] [nM] | IC50 [4] [nM]
1 | COc1cc(-c2cnc3cc(C(C)(O)CC#N)ccn23)cc(OC(F)F)c1C(=O)NC1CC1 (centres unmarked) [Cpd 179, 4-[7-(2-cyano-1-hydroxy-1-methyl-ethyl)imidazo[1,2-a]pyridin-3-yl]-N-cyclopropyl-2-(difluoromethoxy)-6-methoxy-benzamide] | 0.01 to 10 | 0.01 to 10 | 0.1 to 100 | 0.01 to 10
2 | COc1cc(-c2cnn3cc(C(C)(C)c4nc(C)no4)ccc23)cc(OC(F)F)c1C(=O)NC1CC1 [Cpd 248, N-cyclopropyl-2-(difluoromethoxy)-6-methoxy-4-[6-[1-methyl-1-(3-methyl-1,2,4-oxadiazol-5-yl)ethyl]pyrazolo[1,5-a]pyridin-3-yl]benzamide] | > 500 | 10 to 100 | 100 to 1000 | > 500
3 | COc1cn2c(-c3cc(OC)c(C(=O)NC4CC4)c(OC(F)F)c3)cnc2cc1C1CCOCC1 [Cpd 167, N-cyclopropyl-2-(difluoromethoxy)-6-methoxy-4-(6-methoxy-7-tetrahydropyran-4-yl-imidazo[1,2-a]pyridin-3-yl)benzamide] | 100 to 500 | 10 to 100 | 1000 to 5000 | > 500
4 | COc1cc(-c2cnn3cc(C(C)(C)COC4COC4)ccc23)cc(OC(F)F)c1C(=O)N[C@@H]1C[C@@H]1F [Cpd 265, 2-(difluoromethoxy)-4-[6-[1,1-dimethyl-2-(oxetan-3-yloxy)ethyl]pyrazolo[1,5-a]pyridin-3-yl]-N-[(1R,2S)-2-fluorocyclopropyl]-6-methoxy-benzamide] | > 500 | 10 to 100 | 100 to 1000 | > 500
5 | COc1cc(-c2cnc3cc(C4(OC)COC4)ccn23)cc(OC(F)F)c1C(=O)NC1CC1 [Cpd 212, N-cyclopropyl-2-(difluoromethoxy)-6-methoxy-4-[7-(3-methoxyoxetan-3-yl)imidazo[1,2-a]pyridin-3-yl]benzamide] | > 500 | 10 to 100 | 100 to 1000 | > 500
6 | COc1cc(-c2cnn3cc(C(C)(C)COCC(=O)N(C)C)ccc23)cc(OC(F)F)c1C(=O)N[C@@H]1C[C@@H]1F [Cpd 251, 2-(difluoromethoxy)-4-[6-[2-[2-(dimethylamino)-2-oxo-ethoxy]-1,1-dimethyl-ethyl]pyrazolo[1,5-a]pyridin-3-yl]-N-[(1R,2S)-2-fluorocyclopropyl]-6-methoxy-benzamide] | > 500 | 0.01 to 10 | 100 to 1000 | > 500
7 | COc1cc(-c2cnn3cc(C(C)(C)COCC4COC4)ccc23)cc(OC(F)F)c1C(=O)N[C@@H]1C[C@@H]1F [Cpd 262, 2-(difluoromethoxy)-4-[6-[1,1-dimethyl-2-(oxetan-3-ylmethoxy)ethyl]pyrazolo[1,5-a]pyridin-3-yl]-N-[(1R,2S)-2-fluorocyclopropyl]-6-methoxy-benzamide] | > 500 | 0.01 to 10 | 100 to 1000 | > 500
8 | COC(=O)NC1(c2ccc3c(-c4cc(OC)c(C(=O)N[C@@H]5C[C@@H]5F)c(OC(F)F)c4)cnn3c2)CCC1 [Cpd 272, methyl N-[1-[3-[3-(difluoromethoxy)-4-[[(1R,2S)-2-fluorocyclopropyl]carbamoyl]-5-methoxy-phenyl]pyrazolo[1,5-a]pyridin-6-yl]cyclobutyl]carbamate] | > 500 | 10 to 100 | 100 to 1000 | > 500
9 | COc1cc(-c2cnc3cc(C(C)(O)CN4CCOCC4)ccn23)cc(OC(F)F)c1C(=O)NC1CC1 (centres unmarked) [Cpd 178, N-cyclopropyl-2-(difluoromethoxy)-4-[7-(1-hydroxy-1-methyl-2-morpholino-ethyl)imidazo[1,2-a]pyridin-3-yl]-6-methoxy-benzamide] | > 500 | 10 to 100 | 100 to 1000 | > 500
10 | COc1cc(-c2cnc3cc(C4(O)COC4)ccn23)cc(OC(F)F)c1C(=O)N[C@@H]1C[C@@H]1F [Cpd 223, 2-(difluoromethoxy)-N-[(1R,2S)-2-fluorocyclopropyl]-4-[7-(3-hydroxyoxetan-3-yl)imidazo[1,2-a]pyridin-3-yl]-6-methoxy-benzamide] | 100 to 500 | 10 to 100 | 100 to 1000 | > 500
11 | COc1cc(-c2cnc3cc(C(C)N4CCOCC4)ccn23)cc(OC(F)F)c1C(=O)NC1CC1 (centres unmarked) [Cpd 139, N-cyclopropyl-2-(difluoromethoxy)-6-methoxy-4-[7-(1-morpholinoethyl)imidazo[1,2-a]pyridin-3-yl]benzamide] | > 500 | 10 to 100 | 1000 to 5000 | > 500
12 | CNC(=O)C1(c2ccc3c(-c4cc(OC)c(C(=O)N[C@@H]5C[C@@H]5F)c(OC(F)F)c4)cnn3c2)CCC1 [Cpd 273, 2-(difluoromethoxy)-N-[(1R,2S)-2-fluorocyclopropyl]-6-methoxy-4-[6-[1-(methylcarbamoyl)cyclobutyl]pyrazolo[1,5-a]pyridin-3-yl]benzamide] | > 500 | 10 to 100 | 100 to 1000 | > 500
13 | COc1cc(-c2cnc3cc(C(C)(O)CN4CCCCC4)ccn23)cc(OC(F)F)c1C(=O)NC1CC1 (centres unmarked) [Cpd 185, N-cyclopropyl-2-(difluoromethoxy)-4-[7-[1-hydroxy-1-methyl-2-(1-piperidyl)ethyl]imidazo[1,2-a]pyridin-3-yl]-6-methoxy-benzamide] | > 500 | 10 to 100 | 100 to 1000 | > 500
14 | COc1cc(-c2cnc3cc(C4(O)CCOC4)ccn23)cc(OC(F)F)c1C(=O)NC1CC1 (centres unmarked) [Cpd 213, N-cyclopropyl-2-(difluoromethoxy)-4-[7-(3-hydroxytetrahydrofuran-3-yl)imidazo[1,2-a]pyridin-3-yl]-6-methoxy-benzamide] | > 500 | 10 to 100 | 100 to 1000 | > 500
15 | COc1cc(-c2cnc3cc(C(C)(C)C4CCO4)ccn23)cc(OC(F)F)c1C(=O)NC1CC1 (centres unmarked) [Cpd 229, N-cyclopropyl-2-(difluoromethoxy)-6-methoxy-4-[7-[1-methyl-1-(oxetan-2-yl)ethyl]imidazo[1,2-a]pyridin-3-yl]benzamide] | > 500 | 10 to 100 | 100 to 1000 | > 500
16 | COc1cc(-c2cnn3cc(C(C)(C)NCCO)ccc23)cc(OC(F)F)c1C(=O)N[C@@H]1C[C@@H]1F [Cpd 268, 2-(difluoromethoxy)-N-[(1R,2S)-2-fluorocyclopropyl]-4-[6-[1-(2-hydroxyethylamino)-1-methyl-ethyl]pyrazolo[1,5-a]pyridin-3-yl]-6-methoxy-benzamide] | > 500 | 10 to 100 | 100 to 1000 | > 500
17 | COc1cc(-c2cnn3cc(C(C)(C)OCCN4CCOCC4)ccc23)cc(OC(F)F)c1C(=O)N[C@@H]1C[C@@H]1F [Cpd 255, 2-(difluoromethoxy)-N-[(1R,2S)-2-fluorocyclopropyl]-6-methoxy-4-[6-[1-methyl-1-(2-morpholinoethoxy)ethyl]pyrazolo[1,5-a]pyridin-3-yl]benzamide] | > 500 | 10 to 100 | 100 to 1000 | > 500
